Source: patent US20100267561A1, “HERBICIDAL PYRIDAZINONE DERIVATIVES” (priority 2007, published 2010)

Assays:
Test in all cases: Test B pre-/postemergence plant response
Assay type in all cases: in vivo
[1] = system: common ragweed (Ambrosia elation)
Summary of the method: (§1)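 Seeds were sown and sprayed preemergence, while plants at 2 to 18 cm (1- to 4-leaf stage) got postemergence sprays. Compounds were formulated in a non-phytotoxic solvent mixture with surfactant. After 13 to 15 days in a greenhouse, injury was rated visually against untreated controls, 0 (no effect) to 100 (complete control).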

kochia (Kochia scoparia) = details: for Kochia plant response rating: postemergence, 0-100 scale; for Plant response rating, Kochia: Postemergence
Summary of the method: as §1

[2] = system: johnsongrass (Sorghum halepense)
Summary of the method: as §1

[3] = system: Russian thistle (Salsola iberica); details: Preemergence; for Russian Thistle plant response rating: scale 0 to 100
Summary of the method: as §1

[4] = system: blackgrass (Alopecurus myosuroides); details: for Blackgrass plant response rating: 8 g ai/ha
Summary of the method: as §1

[5] = system: catchweed bedstraw (Galium aparine); details: Preemergence; for Galium plant response rating: scale 0 to 100
Summary of the method: as §1

[6] = system: Italian ryegrass (Lolium multiflorum)
Summary of the method: as §1

[7] = system: eastern black (E.B.) nightshade (Solanum ptycanthum); details: Preemergence; for Nightshade, E. B. plant response rating: scale 0 to 100
Summary of the method: as §1

[8] = system: pigweed (Amaranthus retroflexus)
Summary of the method: as §1

soybean (Glycine max) = details: for Soybean plant response rating: postemergence, 0-100 scale; for Plant response rating, Soybean: Postemergence
Summary of the method: as §1

[9] = system: giant foxtail (Setaria faberii)
Summary of the method: as §1

[10] = system: woolly cupgrass (Eriochloa villosa)
Summary of the method: as §1

[11] = system: goosegrass (Eleusine indica)
Summary of the method: as §1

[12] = system: lambsquarters (Chenopodium album); details: for Lambsquarters plant response rating: postemergence, 0-100 scale; for Plant response rating, Lambsquarters: Postemergence
Summary of the method: as §1

[13] = 8 g ai/ha, postemergence, 0-100 scale
[14] = 16 g ai/ha, postemergence, 0-100 scale
[15] = Postemergence, 31 g ai/ha, scale 0 to 100
[16] = Postemergence, 62 g ai/ha, scale 0 to 100, 0 no effect, 100 complete control
[17] = Preemergence, 31 g ai/ha, scale 0 to 100 (0 no effect, 100 complete control)
[18] = Preemergence, 62 g ai/ha, 0 to 100 scale, 0 no effect, 100 complete control
[19] = Preemergence, 8 g ai/ha, scale 0 to 100
[20] = Preemergence, 16 g ai/ha, scale 0 to 100
[21] = 62 g ai/ha, scale 0 to 100, 0 no effect, 100 complete control
[22] = 31 g ai/ha, scale 0 to 100 (0 no effect, 100 complete control)
[23] = 62 g ai/ha, 0 to 100 scale, 0 no effect, 100 complete control
[24] = Postemergence, 16 g ai/ha, scale 0 to 100

Cc1cc(-c2ccc(Cl)cc2)nn1-c1c(OC(=S)N(C)C)cnn(C)c1=O [Compound 69]
90: Plant response rating, Blackgrass [4, 16] | Plant response rating, Cupgrass, Woolly [10, 24] | Plant response rating, Goosegrass [11, 16]
65: Johnsongrass plant response rating [2, 14]
0: Ragweed plant response rating [1, 13] | Ragweed plant response rating [1, 14] | Plant response rating, Ragweed [1, 15] | Plant response rating, Ragweed [1, 16] | Ragweed plant response rating [1, 19] | Kochia plant response rating (kochia (Kochia scoparia); 8 g ai/ha) | Kochia plant response rating (kochia (Kochia scoparia); 16 g ai/ha) | Plant response rating, Johnsongrass [2, 17] | Plant response rating, Johnsongrass [2, 18] | Johnsongrass plant response rating [2, 19] | Johnsongrass plant response rating [2, 20] | Plant response rating, Russian Thistle [3, 22] | Plant response rating, Russian Thistle [3, 23] | Russian Thistle plant response rating ([3]; 8 g ai/ha) | Russian Thistle plant response rating ([3]; 16 g ai/ha) | Plant response rating, Blackgrass ([4]; Preemergence, 16 g ai/ha, scale 0 to 100 (0 no effect, 100 complete control)) | Blackgrass plant response rating ([4]; Preemergence, scale 0 to 100) | Plant response rating, Galium [5, 22] | Plant response rating, Galium [5, 23] | Galium plant response rating ([5]; 8 g ai/ha) | Galium plant response rating ([5]; 16 g ai/ha) | Ryegrass, Italian plant response rating [6, 19] | Plant response rating, Nightshade, E. B. [7, 22] | Plant response rating, Nightshade, E. B. [7, 23] | Nightshade, E. B. plant response rating ([7]; 8 g ai/ha) | Nightshade, E. B. plant response rating ([7]; 16 g ai/ha) | Pigweed plant response rating [8, 13] | Pigweed plant response rating [8, 14] | Plant response rating, Pigweed [8, 15] | Plant response rating, Pigweed [8, 16] | Plant response rating, Pigweed [8, 17] | Plant response rating, Pigweed [8, 18] | Pigweed plant response rating [8, 19] | Pigweed plant response rating [8, 20] | Soybean plant response rating (soybean (Glycine max); 8 g ai/ha) | Soybean plant response rating (soybean (Glycine max); 16 g ai/ha) | Plant response rating, Soybean (soybean (Glycine max); 31 g ai/ha, scale 0 to 100) | Plant response rating, Foxtail, Giant [9, 17] | Plant response rating, Foxtail, Giant [9, 18] | Foxtail, Giant plant response rating [9, 19] | Foxtail, Giant plant response rating [9, 20] | Plant response rating, Cupgrass, Woolly [10, 17] | Cupgrass, Woolly plant response rating [10, 19] | Cupgrass, Woolly plant response rating [10, 20] | Plant response rating, Goosegrass [11, 17] | Plant response rating, Goosegrass [11, 18] | Goosegrass plant response rating [11, 19] | Goosegrass plant response rating [11, 20] | Lambsquarters plant response rating ([12]; 8 g ai/ha) | Lambsquarters plant response rating ([12]; 16 g ai/ha) | Plant response rating, Lambsquarters ([12]; 31 g ai/ha, scale 0 to 100) | Plant response rating, Lambsquarters [12, 21]
85: Plant response rating, Foxtail, Giant [9, 24] | Plant response rating, Cupgrass, Woolly [10, 18]
35: Plant response rating, Blackgrass [4, 24] | Plant response rating, Blackgrass [4, 15]
40: Plant response rating, Blackgrass [4, 17]
10: Blackgrass plant response rating ([4]; postemergence, 0-100 scale) | Ryegrass, Italian plant response rating [6, 13]
20: Ryegrass, Italian plant response rating [6, 20] | Plant response rating, Soybean (soybean (Glycine max); [21]) | Cupgrass, Woolly plant response rating [10, 13]
55: Ryegrass, Italian plant response rating [6, 14]
60: Johnsongrass plant response rating [2, 13] | Plant response rating, Ryegrass, Italian [6, 17] | Foxtail, Giant plant response rating [9, 13] | Goosegrass plant response rating [11, 13]
95: Plant response rating, Kochia (kochia (Kochia scoparia); 31 g ai/ha, scale 0 to 100) | Plant response rating, Cupgrass, Woolly [10, 15]
100: Plant response rating, Ragweed [1, 17] | Plant response rating, Ragweed [1, 18] | Plant response rating, Ryegrass, Italian [6, 16] | Plant response rating, Ryegrass, Italian [6, 18] | Plant response rating, Foxtail, Giant [9, 15] | Plant response rating, Foxtail, Giant [9, 16] | Plant response rating, Cupgrass, Woolly [10, 16]
98: Ragweed plant response rating [1, 20] | Plant response rating, Kochia (kochia (Kochia scoparia); [21]) | Plant response rating, Ryegrass, Italian [6, 15]
75: Plant response rating, Johnsongrass [2, 16] | Plant response rating, Goosegrass [11, 15]
70: Plant response rating, Johnsongrass [2, 15] | Plant response rating, Blackgrass [4, 18] | Goosegrass plant response rating [11, 14]
